# In article PMC7898037, “Improving mitochondria and ER stability helps eliminate upper motor neuron degeneration that occurs due to mSOD1 toxicity and TDP‐43 pathology” (Clinical and Translational Medicine, 2021):
# “And” between values parts separate entries of the source, which are not always exact repeats. Equal entries are not always repeated.
# Columns and labels:
# [1] = tested on: misfolded SOD1 in UMNs of hSOD1^G93A‐UeGFP mice; experiment: Quantification of misfolded SOD1 (B8H10) in UMNs; format: in vivo; conditions: for misfolded SOD1 level in UMNs (average integrated density): hSOD1^G93A‐UeGFP mice
# Method: (§1) hSOD1^G93A‐UeGFP, prpTDP‐43^A315T‐UeGFP and WT‐UeGFP mice were weighed and the required NU‐9 dose per weight was calculated (20 or 100 mg/kg), which was administered once daily by oral gavage, starting at postnatal day (P)60 and continuing until P120. Animals from the untreated group received the vehicle (NMP and olive oil) only. For oral administration purposes, 20 ga × 38 mm plastic feeding tubes were used (Instech Laboratories, Inc). The gavage tip was inserted into the mouth directly over the tongue and into the pharynx. While observing the swallowing reflex, the tip was safely and smoothly slid into the esophagus. Once the administration was completed, the gavage tip was pulled straight out.
# The antibodies used are as follows: anti‐GFP (1:1000, Invitrogen; or 1:1000, Abcam) and anti‐misfolded SOD1 (B8H10, 1:250, Médimabs). Briefly, sections were treated with blocking solution (PBS, 0.05% BSA, 2% FBS, 1% Triton X‐100, and 0.1% saponin) for 30 min at room temperature and incubated with primary antibody diluted in blocking solution overnight at 4°C. Appropriate secondary fluorescent antibodies (1:500, AlexaFluor‐conjugated, Invitrogen) were added to the blocking solution at room temperature for 2 h in the dark.
# 50‐µm thick sections of primary motor cortex were captured using the 20× objective on an inverted epifluorescent Eclipse TE2000‐E microscope using the same settings and exposure time for all of the samples. eGFP positive (eGFP^+) UMNs in focal plane with sharp boundaries and a visible nucleus were traced using ImageJ (NIH). ROI were transferred to the misfolded SOD1 channel, and the integrated density was measured to determine the levels of misfolded SOD1 in GFP^+ UMNs only. Fifty to 90 UMNs were analyzed per mouse, and the average integrated density was reported per experimental group. For visualization purposes of misfolded SOD1 fluorescence intensity, nd2 files were opened in ImageJ and spectrum look‐up table (LUT) was applied to the appropriate channel.
# hSOD1^G93A‐UeGFP mice = experiment: Rotarod test, hSOD1^G93A‐UeGFP mice; format: in vivo; set-up: Rotarod, Mean Diff. (vehicle minus NU-9) / Rotarod, mean difference GS vehicle vs. GS NU-9 (20) / Rotarod, mean difference GS vehicle vs. GS NU-9 (100): unit not given here; conditions: for Rotarod, group mean (Mean 1 / Mean 2 of 2way ANOVA multiple comparisons) / Rotarod, mean difference GS vehicle vs. GS NU-9 (20) / Rotarod, mean difference GS vehicle vs. GS NU-9 (100): GS (hSOD1G93A-UeGFP); for Rotarod, mean difference GS vehicle vs. GS NU-9 (20): vehicle minus NU-9 (20); for Rotarod, mean difference GS vehicle vs. GS NU-9 (100): vehicle minus NU-9 (100); for Rotarod, group mean (Mean 1 / Mean 2) / Rotarod, Mean Diff. (vehicle minus NU-9): hSOD1G93A-UeGFP mice; for Rotarod, Average: hSOD1G93A-UeGFP
# Method: as §1
# Behavior data were collected from hSOD1^G93A‐UeGFP and WT‐UeGFP mice (starting at P60 and every 7 days until P116) and from prpTDP‐43^A315T‐UeGFP mice (at P60, P90, and P120) with the following number of mice for each group: WT‐UeGFP vehicle (n = 10), hSOD1^G93A‐UeGFP vehicle (n = 6), WT‐UeGFP 20 mg/kg/day NU‐9 (n = 5), hSOD1^G93A‐UeGFP 20 mg/kg/day NU‐9 (n = 7), WT‐UeGFP 100 mg/kg/day NU‐9 (n = 11), hSOD1^G93A‐UeGFP 100 mg/kg/day NU‐9 (n = 9), prpTDP‐43^A315T‐UeGFP untreated (n ≥ 3), and prpTDP‐43^A315T‐UeGFP 100 mg/kg/day NU‐9 (n = 4) (Table S3).
# Mice were placed on a rotating rod that accelerates linearly from 4 to 40 rpm (Rotarod, Ugo Basile), and the average time spent on the rotating rod for three consecutive trials was calculated for each mouse. Mice were allowed to run for a maximum of 5 min with a 5 min rest period between each run, and the latency to fall was recorded for three consecutive trials. The average of the three trials was taken as the data point for each mouse at the age tested, and the performance of different groups are reported as the mean ± SEM.
# [2] = set-up: method as in PMID 22189273, PMID 22837812; conditions: cited from earlier work
# [3] = cited from earlier work
smiles,measurement,setting,value
C[C@H](Oc1cc(C(F)(F)F)cc(C(F)(F)F)c1)C1CC(=O)CC(=O)C1 [NU‐9],Fig. 3E group mean (integrated density of misfolded SOD1 fluorescence in UMNs),[1]; hSOD1G93A-UeGFP (NU-9 20 mg/kg/day),132928
same,Fig. 3E group mean (integrated density of misfolded SOD1 fluorescence in UMNs),[1]; hSOD1G93A-UeGFP (NU-9 100 mg/kg/day),120052
same,misfolded SOD1 level in UMNs (average integrated density),[1]; 20 mg/kg/day oral gavage P60–P120,1.33 × 10^5 ± 0.11 × 10^5 au
same,misfolded SOD1 level in UMNs (average integrated density),[1]; 100 mg/kg/day oral gavage P60–P120,1.2 × 10^5 ± 0.07 × 10^5 au
same,"Rotarod, group mean (Mean 1 / Mean 2 of 2way ANOVA multiple comparisons)","hSOD1^G93A‐UeGFP mice; NU-9 (20), P102",158.8
same,"Rotarod, group mean (Mean 1 / Mean 2 of 2way ANOVA multiple comparisons)","hSOD1^G93A‐UeGFP mice; NU-9 (20), P109",149.1
same,"Rotarod, group mean (Mean 1 / Mean 2 of 2way ANOVA multiple comparisons)","hSOD1^G93A‐UeGFP mice; NU-9 (20), P116",107.7
same,"Rotarod, group mean (Mean 1 / Mean 2 of 2way ANOVA multiple comparisons)","hSOD1^G93A‐UeGFP mice; NU-9 (100), P102",170
same,"Rotarod, group mean (Mean 1 / Mean 2 of 2way ANOVA multiple comparisons)","hSOD1^G93A‐UeGFP mice; NU-9 (100), P109",151.3
same,"Rotarod, group mean (Mean 1 / Mean 2 of 2way ANOVA multiple comparisons)","hSOD1^G93A‐UeGFP mice; NU-9 (100), P116",128.5
same,"Rotarod, mean difference GS vehicle vs. GS NU-9 (20)",hSOD1^G93A‐UeGFP mice; P102,22.8
same,"Rotarod, mean difference GS vehicle vs. GS NU-9 (20)",hSOD1^G93A‐UeGFP mice; P109,18.74
same,"Rotarod, mean difference GS vehicle vs. GS NU-9 (20)",hSOD1^G93A‐UeGFP mice; P116,14.44
same,"Rotarod, mean difference GS vehicle vs. GS NU-9 (100)",hSOD1^G93A‐UeGFP mice; P102,11.61
same,"Rotarod, mean difference GS vehicle vs. GS NU-9 (100)",hSOD1^G93A‐UeGFP mice; P109,16.57
same,"Rotarod, mean difference GS vehicle vs. GS NU-9 (100)",hSOD1^G93A‐UeGFP mice; P116,-6.407
same,"Rotarod, group mean (Mean 1 / Mean 2)","hSOD1^G93A‐UeGFP mice; NU-9 20 mg/kg/day, P60",221.3
same,"Rotarod, group mean (Mean 1 / Mean 2)","hSOD1^G93A‐UeGFP mice; NU-9 20 mg/kg/day, P67",221.6
same,"Rotarod, group mean (Mean 1 / Mean 2)","hSOD1^G93A‐UeGFP mice; NU-9 20 mg/kg/day, P74",213.6
same,"Rotarod, group mean (Mean 1 / Mean 2)","hSOD1^G93A‐UeGFP mice; NU-9 20 mg/kg/day, P81",207.4
same,"Rotarod, group mean (Mean 1 / Mean 2)","hSOD1^G93A‐UeGFP mice; NU-9 20 mg/kg/day, P88",209.5
same,"Rotarod, group mean (Mean 1 / Mean 2)","hSOD1^G93A‐UeGFP mice; NU-9 20 mg/kg/day, P95",178.8
same,"Rotarod, group mean (Mean 1 / Mean 2)","hSOD1^G93A‐UeGFP mice; NU-9 100 mg/kg/day, P60",206.8
same,"Rotarod, group mean (Mean 1 / Mean 2)","hSOD1^G93A‐UeGFP mice; NU-9 100 mg/kg/day, P67",223.1
same,"Rotarod, group mean (Mean 1 / Mean 2)","hSOD1^G93A‐UeGFP mice; NU-9 100 mg/kg/day, P74",224
same,"Rotarod, group mean (Mean 1 / Mean 2)","hSOD1^G93A‐UeGFP mice; NU-9 100 mg/kg/day, P81",223.4
same,"Rotarod, group mean (Mean 1 / Mean 2)","hSOD1^G93A‐UeGFP mice; NU-9 100 mg/kg/day, P88",203.8
same,"Rotarod, group mean (Mean 1 / Mean 2)","hSOD1^G93A‐UeGFP mice; NU-9 100 mg/kg/day, P95",191
same,"Rotarod, Mean Diff. (vehicle minus NU-9)","hSOD1^G93A‐UeGFP mice; vehicle vs. NU-9 20 mg/kg/day, P60",-28.22
same,"Rotarod, Mean Diff. (vehicle minus NU-9)","hSOD1^G93A‐UeGFP mice; vehicle vs. NU-9 20 mg/kg/day, P67",4.159
same,"Rotarod, Mean Diff. (vehicle minus NU-9)","hSOD1^G93A‐UeGFP mice; vehicle vs. NU-9 20 mg/kg/day, P74",4.103
same,"Rotarod, Mean Diff. (vehicle minus NU-9)","hSOD1^G93A‐UeGFP mice; vehicle vs. NU-9 20 mg/kg/day, P81",-5.651
same,"Rotarod, Mean Diff. (vehicle minus NU-9)","hSOD1^G93A‐UeGFP mice; vehicle vs. NU-9 20 mg/kg/day, P88",-17.41
same,"Rotarod, Mean Diff. (vehicle minus NU-9)","hSOD1^G93A‐UeGFP mice; vehicle vs. NU-9 20 mg/kg/day, P95",23.52
same,"Rotarod, Mean Diff. (vehicle minus NU-9)","hSOD1^G93A‐UeGFP mice; vehicle vs. NU-9 20 mg/kg/day, P102",22.8
same,"Rotarod, Mean Diff. (vehicle minus NU-9)","hSOD1^G93A‐UeGFP mice; vehicle vs. NU-9 20 mg/kg/day, P109",18.74
same,"Rotarod, Mean Diff. (vehicle minus NU-9)","hSOD1^G93A‐UeGFP mice; vehicle vs. NU-9 20 mg/kg/day, P116",14.44
same,"Rotarod, Mean Diff. (vehicle minus NU-9)","hSOD1^G93A‐UeGFP mice; vehicle vs. NU-9 100 mg/kg/day, P60",-13.7
same,"Rotarod, Mean Diff. (vehicle minus NU-9)","hSOD1^G93A‐UeGFP mice; vehicle vs. NU-9 100 mg/kg/day, P67",2.704
same,"Rotarod, Mean Diff. (vehicle minus NU-9)","hSOD1^G93A‐UeGFP mice; vehicle vs. NU-9 100 mg/kg/day, P74",-6.241
same,"Rotarod, Mean Diff. (vehicle minus NU-9)","hSOD1^G93A‐UeGFP mice; vehicle vs. NU-9 100 mg/kg/day, P81",-21.67
same,"Rotarod, Mean Diff. (vehicle minus NU-9)","hSOD1^G93A‐UeGFP mice; vehicle vs. NU-9 100 mg/kg/day, P88",-11.7
same,"Rotarod, Mean Diff. (vehicle minus NU-9)","hSOD1^G93A‐UeGFP mice; vehicle vs. NU-9 100 mg/kg/day, P95",11.37
same,"Rotarod, Mean Diff. (vehicle minus NU-9)","hSOD1^G93A‐UeGFP mice; vehicle vs. NU-9 100 mg/kg/day, P102",11.61
same,"Rotarod, Mean Diff. (vehicle minus NU-9)","hSOD1^G93A‐UeGFP mice; vehicle vs. NU-9 100 mg/kg/day, P109",16.57
same,"Rotarod, Mean Diff. (vehicle minus NU-9)","hSOD1^G93A‐UeGFP mice; vehicle vs. NU-9 100 mg/kg/day, P116",-6.407
same,"Rotarod, Average","hSOD1^G93A‐UeGFP mice; NU-9 20 mg/kg/day po, P60",221.333 s
same,"Rotarod, Average","hSOD1^G93A‐UeGFP mice; NU-9 20 mg/kg/day po, P67",221.619 s
same,"Rotarod, Average","hSOD1^G93A‐UeGFP mice; NU-9 20 mg/kg/day po, P74",213.619 s
same,"Rotarod, Average","hSOD1^G93A‐UeGFP mice; NU-9 20 mg/kg/day po, P81",207.429 s
same,"Rotarod, Average","hSOD1^G93A‐UeGFP mice; NU-9 20 mg/kg/day po, P88",209.524 s
same,"Rotarod, Average","hSOD1^G93A‐UeGFP mice; NU-9 20 mg/kg/day po, P95",178.81 s
same,"Rotarod, Average","hSOD1^G93A‐UeGFP mice; NU-9 20 mg/kg/day po, P102",158.81 s
same,"Rotarod, Average","hSOD1^G93A‐UeGFP mice; NU-9 20 mg/kg/day po, P109",149.095 s
same,"Rotarod, Average","hSOD1^G93A‐UeGFP mice; NU-9 20 mg/kg/day po, P116",107.667 s
same,"Rotarod, Average","hSOD1^G93A‐UeGFP mice; NU-9 100 mg/kg/day po, P60",206.815 s
same,"Rotarod, Average","hSOD1^G93A‐UeGFP mice; NU-9 100 mg/kg/day po, P67",223.074 s
same,"Rotarod, Average","hSOD1^G93A‐UeGFP mice; NU-9 100 mg/kg/day po, P74",223.963 s
same,"Rotarod, Average","hSOD1^G93A‐UeGFP mice; NU-9 100 mg/kg/day po, P81",223.444 s
same,"Rotarod, Average","hSOD1^G93A‐UeGFP mice; NU-9 100 mg/kg/day po, P88",203.815 s
same,"Rotarod, Average","hSOD1^G93A‐UeGFP mice; NU-9 100 mg/kg/day po, P95",190.963 s
same,"Rotarod, Average","hSOD1^G93A‐UeGFP mice; NU-9 100 mg/kg/day po, P102",170 s
same,"Rotarod, Average","hSOD1^G93A‐UeGFP mice; NU-9 100 mg/kg/day po, P109",151.259 s
same,"Rotarod, Average","hSOD1^G93A‐UeGFP mice; NU-9 100 mg/kg/day po, P116",128.519 s
same,rotarod performance,"hSOD1^G93A‐UeGFP mice; hSOD1^G93A‐UeGFP mice, regardless of dose (20 or 100 mg/kg/day)",did not result in significant improvement
same,Solubility (aqueous),[2],≥ 100 µM and ≥ 37 µg/ml
same,Brain penetration,[3],8 µM and 8.3 µM
same,blood brain barrier crossing,[3],crossed the blood brain barrier
same,t 1/2,"[3]; in vivo, mice",2.7 h and 2.73 h
same,Blood levels (t max),"[3]; ip, mice, dose 500 mg/kg",12 h (500 mg/kg)
same,Oral bioavailability,[3]; mice,94%
same,CL (mouse),[3]; mouse,44 mL/min/kg
same,AUC,[3]; po,3452 h‐ng/ml po
